For 16 compounds, inhibition and Activity results are on record in ChEMBL document CHEMBL3045320, “Synthesis, antitumor and antioxidant evaluation of some new thiazole and thiophene derivatives incorporated coumarin moiety” (2012).

A short description of experiment [1]: Antioxidant activity assessed as inhibition of ABTS free radical. In kind it is functional. Details: concentration or dose not given beside the values. The following applies: dose or concentration not given here.
Experiment [2] can be described thus: Cytotoxicity against Mus musculus (mouse) EAC cells assessed as dead cell at ED25 ug/cm'3 after 2 hr by trypan blue assay. In kind it is functional, Ehrlich.
Experiment [3] is described as follows: Cytotoxicity against Mus musculus (mouse) EAC cells assessed as dead cell at ED50 ug/cm'3 after 2 hr by trypan blue assay. In kind it is functional, Ehrlich.
A short description of experiment [4]: Cytotoxicity against Mus musculus (mouse) EAC cells assessed as dead cell at ED100 ug/cm'3 after 2 hr by trypan blue assay. In kind it is functional, Ehrlich.

On to `O=C1O[C@H]([C@@H](O)CO)C(O)=C1O`, for which the inhibition (usually the drop in the measured response relative to a control, in per cent) in experiment [1] came to 84%.

`N#C/C(C(=O)Nc1nc(-c2cc3ccccc3oc2=O)cs1)=C1/SC(=O)CN1c1ccccc1`: in experiment [1], the inhibition stood at 28.9%. Also, the figures for the Activity in experiment [2], in experiment [3] and in experiment [4] were 1.6%, 3.1% and 7%, respectively.

As for `N=c1oc2ccccc2cc1C(=O)Nc1nc(-c2cc3ccccc3oc2=O)cs1`, the inhibition in experiment [1] was determined as 61.4%. Besides, the Activity is recorded as 1.3% in experiment [2], 2.1% in experiment [3] and 4.9% in experiment [4].

As for `Nc1c(C(=O)c2cc3ccccc3oc2=O)sc(Nc2ccccc2)c1C(=O)N1NC(=O)C2C3c4ccccc4C(c4ccccc43)C2C1=O` (stereo not drawn), the inhibition in experiment [1] was 13.7%. Further, the Activity in experiment [2] was 1.6%; in experiment [3] it was 3%; in experiment [4], 6.1%.

In the case of `O=C(CBr)c1cc2ccccc2oc1=O`, in experiment [1], the inhibition was 50.2%.

Consider `Nc1c(C(=O)c2cc3ccccc3oc2=O)sc(S)c1-c1nc2ccccc2s1`, for which the inhibition in experiment [1] worked out at 75.6%.

Consider `Nc1c(C(=O)c2cc3ccccc3oc2=O)sc(Nc2ccccc2)c1C(=O)Nc1nc(-c2cc3ccccc3oc2=O)cs1`, for which, in experiment [1], the inhibition was 35.4%. For the same compound, the Activity was 1.7% in experiment [2], 3% in experiment [3] and 7.1% in experiment [4].

As for `CC(=O)c1cc2ccccc2oc1=O`, in experiment [1], the inhibition was found to be 63.6%.

Regarding `N#C/C(C(=O)Nc1nc(-c2cc3ccccc3oc2=O)cs1)=C(\Nc1ccccc1)SCC(=O)c1cc2ccccc2oc1=O`, in experiment [1], the inhibition stood at 23.8%. Also, the Activity in experiment [2] is reported as 1.5%; in experiment [3], 3.2%; in experiment [4], 6.8%.

Regarding `N#C/C(=C1/SC=C(c2cc3ccccc3oc2=O)N1c1ccccc1)c1nc2ccccc2s1`, the inhibition in experiment [1] amounted to 4.15%. In addition, the Activity came to 1.5% in experiment [2], 3% in experiment [3] and 5.7% in experiment [4].

For `Nc1nc(-c2cc3ccccc3oc2=O)cs1`, in experiment [1], the inhibition came to 74.3%.

Regarding `O=c1[nH]cc(F)c(=O)[nH]1` [FLUOROURACIL], the results for the Activity in experiment [2], in experiment [3] and in experiment [4] were 37%, 58% and 93%, respectively.

Turning to `N#CCC(=O)Nc1nc(-c2cc3ccccc3oc2=O)cs1`, the inhibition in experiment [1] was determined as 70.3%. In addition, the results for the Activity in experiment [2], in experiment [3] and in experiment [4] were 1.8%, 3.8% and 8%, respectively.

Take `N#C/C(C(=O)N1NC(=O)C2C3c4ccccc4C(c4ccccc43)C2C1=O)=C1/SC=C(c2cc3ccccc3oc2=O)N1c1ccccc1` (stereo not drawn): the inhibition in experiment [1] turned out to be 5.74%. Besides, the results for the Activity in experiment [2], in experiment [3] and in experiment [4] were 1.1%, 2.6% and 5.4%, respectively.

`Nc1c(C(=O)c2cc3ccccc3oc2=O)sc(Nc2ccccc2)c1-c1nc2ccccc2s1`: the inhibition in experiment [1] came to 5.94%. The figures for the Activity in experiment [2], in experiment [3] and in experiment [4] were 1.6%, 2.9% and 5.7%, respectively.

`Nc1c(C(=O)c2cc3ccccc3oc2=O)sc(Nc2ccccc2)c1-c1nc2ccccc2[nH]1`: in experiment [1], the inhibition was 0.19%. Moreover, the Activity is given as 1.4% in experiment [2], 2.6% in experiment [3] and 5.6% in experiment [4].
